The source of these data is patent publication US7507727B2, “Substituted quinobenzoxazine analogs and methods of using thereof” (Cylene Pharmaceuticals, Inc., priority 2003, dated 2009).

Molecules are shown by their SMILES.

In one experiment the target is c-Myc template DNA (c-myc quadruplex). The experiment in a line: Quadruplex binding / stop assay (Taq polymerase arrest, capillary electrophoresis). The settings on record: read-out: S DATA; Table 1D, stop assay data.
With `CCCCN1CCC(CNC(=O)c2cn3c4c(c(N5CCC(N)C5)c(F)cc4c2=O)Oc2cc4ccccc4cc2-3)CC1` (centres unmarked) [compound 1718], the IC50 stood at 1.75 µM.

Regarding `CN(C)c1cccc(CNC(=O)c2cn3c4c(c(N5CCC(N)C5)c(F)cc4c2=O)Oc2cc4ccccc4cc2-3)c1` (centres unmarked) [compound 1714], the IC50 is > 15 µM.

`CN1CCCC1CCNC(=O)c1cn2c3c(c(N4CCC(c5ccccc5F)C4)c(F)cc3c1=O)Oc1cc3ccccc3cc1-2` (centres unmarked) [compound 1771]: the IC50 worked out at 10 µM.

With `CC1(C)CC(NC(=O)c2cn3c4c(c(NCCN5CCOCC5)ccc4c2=O)Oc2cc4ccccc4cc2-3)CC(C)(C)N1` [compound 1549], the IC50 was > 15 µM.

Take `COc1cccc(CCNc2c(F)cc3c(=O)c(C(=O)NCCC4CCCN4C)cn4c3c2Oc2cc3ccccc3cc2-4)c1` (centres unmarked) [compound 1669]: the IC50 was determined as 1.75 µM.

On to `CN1CCCC1CCNC(=O)c1cn2c3c(c(NC[C@H]4CCCO4)c(F)cc3c1=O)Oc1cc3ccccc3cc1-2` (some centres unmarked) [compound 1736], for which the IC50 amounted to 3 µM.

Regarding `NC1CCN(c2c(F)cc3c(=O)c(C(=O)NCC(O)CO)cn4c3c2Oc2cc3ccccc3cc2-4)C1` (centres unmarked) [compound 1704], the IC50 turned out to be 1.75 µM.

For `COCC(=O)N1CCN(c2c(F)cc3c(=O)c(C(=O)NCCN4CCCC4)cn4c3c2Oc2cc(Cl)ccc2-4)CC1` [compound 1825], the IC50 stood at 10 µM.

As for `CN1CCCC1CCNC(=O)c1cn2c3c(c(N(C)C4CCCCNC4)c(F)cc3c1=O)Oc1cc3ccccc3cc1-2` (centres unmarked) [compound 1510], the IC50 was > 15 µM.

The same experiment, now with this note: read-out: Stop Data c-Myc μM; concentration at which 50% of the DNA was arrested (arrested:full-length 1:1).
On to `CN1CCCC1CCNCC(=O)N[C@@H]1CCN(c2c(F)cc3c(=O)c(C(=O)NCCC4CCCN4C)cn4c3c2Oc2cc3c(cc2-4)oc2ccccc23)C1` (some centres unmarked) [compound 410], for which the IC50 worked out at 0.75 µM.

As to `CN1CCC(NC(=O)c2cn3c4c(c(N5CCC(N)C5)c(F)cc4c2=O)Oc2cc4ccccc4cc2-3)CC1` (centres unmarked) [compound 467], the IC50 was found to be 0.75 µM.

For the molecule `CN(C)CCCCNC(=O)c1cn2c3cc4oc5cc([N+](=O)[O-])ccc5[nH]c4cc3oc3c(NCCCN4CCOCC4)c(F)cc(c1=O)c32` [compound 555], the IC50 worked out at 0.375 µM.

As for `CN(C)CCCCNC(=O)c1cn2c3c(c(N4CCC(NC(=O)OC(C)(C)C)C4)ccc3c1=O)Oc1cc3ccccc3cc1-2` (centres unmarked) [compound 452], the IC50 came to 0.75 µM.

As for `CN1CCN(CCCNC(=O)c2cn3c4c(c(NCCCN5CCOCC5)c(F)c(N)c4c2=O)Oc2cc4ccccc4cc2-3)CC1` [compound 223], the IC50 came out at 1.75 µM.

`CC1CCCN(CCCNc2c(F)cc3c(=O)c(C(=O)NCCC4CCCN4C)cn4c3c2Oc2cc3ccccc3cc2-4)C1` (centres unmarked) [compound 295]: the IC50 came to 1.75 µM.

In the case of `CN1CCCC1CCNc1c(F)cc2c(=O)c(C(=O)NCCCN3CCOCC3)cn3c4cc5oc6cc([N+](=O)[O-])ccc6[nH]c5cc4oc1c23` (centres unmarked) [compound 553], the IC50 amounted to 0.375 µM.

On to `CN1CCCC1CCNC(=O)c1cn2c3c(c(NC(=O)C4CCCNC4)c(F)cc3c1=O)Oc1cc3ccccc3cc1-2` (centres unmarked) [compound 251], for which the IC50 was 1.75 µM.

Regarding `CN1CCCC1CCNC(=O)c1cn2c3c(c(NC4CC(C)(C)NC(C)(C)C4)c(F)cc3c1=O)Oc1cc3ccccc3cc1-2` (centres unmarked) [compound 325], the IC50 is 1 µM.

As for `O=C(c1cn2c3c(c(NCCN4CCCC4)c(F)cc3c1=O)Oc1cc3ccccc3cc1-2)N1CCOCC1` [compound 43], the IC50 is 2.5 µM.

In the case of `CN(C)CCCCNC(=O)c1cn2c3c(c(N4CCC(N)C4)c(F)c(N)c3c1=O)Oc1cc3ccccc3cc1-2` (centres unmarked) [compound 237], the IC50 was 1.75 µM.

Turning to `CC1CCCCN1CCCNc1c(F)cc2c(=O)c(C(=O)N3CCOCC3)cn3c2c1Oc1cc2ccccc2cc1-3` (centres unmarked) [compound 393], the IC50 came out at 0.75 µM.

`CN1CCN(CCCNc2c(F)cc3c(=O)c(C(=O)N4CCN(C)CC4)cn4c5cc6c(=O)c7ccccc7c(=O)c6cc5oc2c34)CC1` [compound 170]: the IC50 is 1.75 µM.

For `O=C(NCCN1CCOCC1)c1cn2c3c(c(NCCN4CCCC4)c(F)cc3c1=O)Oc1cc3ccccc3cc1-2` [compound 70], the IC50 is 2.5 µM.
